Columns and labels:
Assay type in all cases: cell-based
human mononuclear cells = test: Antiviral effect on Hep-2 cells of supernatant from human mononuclear cells stimulated with peptide; settings: for Antiviral effect of supernatant, 1: supernatant on Hep-2, experiment 1; for Antiviral effect of supernatant, 2: supernatant on Hep-2, experiment 2; for Antiviral effect of supernatant, 3: supernatant on Hep-2, experiment 3; for Antiviral effect of supernatant, Mean: supernatant on Hep-2, mean of 3
Experimental: (§1) Then the cells were washed with saline solution and infected with […] of Mengo virus, provide by Institute of Molecular Biology, University of Zurich, which is multiplied in the cell line L929 murine fibroblasts. 18 h later degree of cell destruction was measured by fixation and staining, generally with crystal violet, for reading of cytophatic effect was used a photometer Ultramicroanalytical System (SUMA). A computer program in Pascal UCSD language for the microcomputer system was developed for all calculations and corrections (Ferrero et al., 1994, Biotecnologia Aplicada. Vol. 1:). In this case serial dilution's of human γ-IFN 70 000 IU/ml (MRI, Freeze-dried Reference Human Recombinant Gamma Interferon) was used as standard in order to define unit of antiviral activity. For this reason the antiviral protection shown by the peptide is related to International Units of γ-IFN (Ul/ml). As a negative control were used different peptides from proteins that bind endotoxin. LPS at 10 ng/ml was used as a positively control because is well known that it induced the production of IFNs (Manthey et al., 1994, J. Immunology. Vol. 153: 2653-2663). One unit of antiviral activity is define as the quantity of IFN able to produce an 50% inhibition of the viral replication.
Venous blood was obtained from healthy volunteers and Ficoll-Hypaque centrifugation, fractionated mononuclear cells. The mononuclear cells were washed and resuspended in endotoxin-free RPMI-1640 culture medium supplemented with 10% fetal calf serum. Concentration of 2×10^6 cells/ml were aliquoted into 24-well microtiter plates (Nunc, Denmark). The cells were then incubated with 14 and 28 μg/ml of different peptides: Limulus anti-LPS factor31-52 (LALF), Lipopolysaccharide Binding Protein86-99 (LBP) and 18 kDa Cationic Antimicrobial Protein108-128 (CAP-18), at 37° C. for 18 hours in 5% CO2. The cells were centrifuged at 3000 rpm for 5 min and then serial dilutions of supematants were assays for antiviral activity using the procedures described in the example 2.

[1] = test system: Mengo virus on cell line Hep-2; test: Antiviral effect: inhibition of the cytopathic effect of Mengo virus on cell line Hep-2; settings: 24 h pre-incubation; for Antiviral effect, 1: experiment 1; for Antiviral effect, 2: experiment 2; for Antiviral effect, 3: experiment 3; for Antiviral effect, Mean: mean of 3
Experimental: as §1

[2] = test system: TNFα from human mononuclear cells; test: TNF-α synthesis by human mononuclear cells (ELISA of supernatant); settings: 18 h, mean of three donors
Experimental: Venous blood was obtained from healthy volunteers and Ficoll-Hypaque centrifugation, fractionated mononuclear cells. The mononuclear cells were washed and resuspended in endotoxic-free RPMI 1640 medium supplemented with 10% fetal calf serum. 30×10^6 cells were aliquoted into plates p-60 (Nunc, Denmark). The cells were incubated with 14 or 28 μg/ml LALF at 37° C. for 18 hours in 5% CO2 and then centrifuged at 3000 rpm during 5 min. The synthesis of TNFα in the supernatant was determined by specific enzyme-linked immunoadsorbent assay (ELISA), kindly provided by Dr. W. Buurman (University Hospital Maastrich, The Netherlands).

[3] = mononuclear cells stimulated with 14 μg/ml for 18 h
[4] = mononuclear cells stimulated with 28 μg/ml for 18 h

**Q.** With CAP-18 [reference compound] as the substance, how does the “Antiviral effect of supernatant, 1” value (human mononuclear cells; [3]) read?
**A.** 7.8 IU/ml γ-IFN

**Q.** What about the “Antiviral effect of supernatant, 2” value (human mononuclear cells; [3]) of the same substance?
**A.** 8 IU/ml γ-IFN

**Q.** And the “Antiviral effect of supernatant, 3” value (human mononuclear cells; [3])?
**A.** 11 IU/ml γ-IFN

**Q.** And the “Antiviral effect of supernatant, Mean” value (human mononuclear cells; [3])?
**A.** 8.93 IU/ml γ-IFN

**Q.** What about the “Antiviral effect of supernatant, 1” value (human mononuclear cells; [4]) of the same substance?
**A.** 8.2 IU/ml γ-IFN

**Q.** And the “Antiviral effect of supernatant, 2” value (human mononuclear cells; [4])?
**A.** 9 IU/ml γ-IFN

**Q.** And the “Antiviral effect of supernatant, 3” value (human mononuclear cells; [4])?
**A.** 9.6 IU/ml γ-IFN

**Q.** And the “Antiviral effect of supernatant, Mean” value (human mononuclear cells; [4])?
**A.** 8.93 IU/ml γ-IFN

**Q.** And the “Antiviral effect, 1” value ([1]; Hep-2, 14 μg/ml)?
**A.** 9 IU/ml γ-IFN

**Q.** What about the “Antiviral effect, 2” value ([1]; Hep-2, 14 μg/ml) of the same substance?
**A.** 8.7 IU/ml γ-IFN

**Q.** And the “Antiviral effect, 3” value ([1]; Hep-2, 14 μg/ml)?
**A.** 9.2 IU/ml γ-IFN

**Q.** What about the “Antiviral effect, Mean” value ([1]; Hep-2, 14 μg/ml) of the same substance?
**A.** 8.9 IU/ml γ-IFN

**Q.** And the “Antiviral effect, 1” value ([1]; Hep-2, 28 μg/ml)?
**A.** 12.2 IU/ml γ-IFN

**Q.** And the “Antiviral effect, 2” value ([1]; Hep-2, 28 μg/ml)?
**A.** 9 IU/ml γ-IFN

**Q.** What about the “Antiviral effect, 3” value ([1]; Hep-2, 28 μg/ml) of the same substance?
**A.** 9 IU/ml γ-IFN

**Q.** And the “Antiviral effect, Mean” value ([1]; Hep-2, 28 μg/ml)?
**A.** 10.9 IU/ml γ-IFN

**Q.** And the “TNF - α” value ([2]; 14 μg/ml)?
**A.** 0.76 ng/mL

**Q.** And the “TNF - α” value ([2]; 28 μg/ml)?
**A.** 0.75 ng/mL

Reference: US6632793B1, “Immunological activity for a peptide of the limulus anti-LPS factor” (Centro de Ingenieria Genetica y Biotecnologia, priority 1997, dated 2003)
